# Assay: in vitro
# Conditions: human, hela cells, % viability
row,SMILES,"viability at 28.5 h, 10 µM [%]"
1,Cc1nc(-c2ccccc2)sc1C(=O)C1=C(O)C(=O)N(CCCN2CCOCC2)C1c1cccs1 (stereo not drawn) [CBK266601],91.4
2,COc1ccc(-c2nnc3c4ccccc4c(C)nn23)cc1S(=O)(=O)NC(C)c1ccccc1 (stereo not drawn) [CBK266605],104
3,Cc1cc(C)cc(NC(=O)c2ccc(CSc3nnc(N)s3)cc2)c1 [CBK266609],85.5
4,CCn1c(COc2ccc(Cl)c3cccnc23)nnc1SC [CBK266611],85.9
5,CCN1CCN(C(=O)CN(Cc2ccc(F)cc2)S(=O)(=O)c2ccccc2)CC1 [CBK266612],96.8
6,Cc1ccc(S(=O)(=O)NCC(C)O)cc1-c1nnc2c3ccccc3c(C)nn12 (stereo not drawn) [CBK266614],106
7,NS(=O)(=O)c1ccc(NC2=NC(=O)C(CC(=O)Nc3ccc(Br)cc3)S2)cc1 (stereo not drawn) [CBK266616],117
8,Nn1c(=O)c2ccccc2n2c(SCC(=O)N(c3ccccc3)c3ccccc3)nnc12 [CBK266621],99.3
9,Cn1c(SCC(=O)NC(c2ccccc2)c2ccccc2)nnc1-c1ccncc1 [CBK266622],97.8
10,N#CC1=C(N)Oc2[nH]nc(-c3ccc4ccccc4c3)c2C1c1cn(CC(N)=O)nc1-c1ccccc1 (stereo not drawn) [CBK266624],107
11,N#C/C(=C/c1ccc(OCc2cccc(C(=O)O)c2)cc1)c1ccc([N+](=O)[O-])cc1 [CBK266626],89.6
12,CCN1CCN(Cc2c(O)ccc3c(=O)c(Oc4ccccc4Cl)c(C(F)(F)F)oc23)CC1 [CBK266627],107
13,CCN1CCN(c2ccc(NC(=O)c3cccnc3)cc2Cl)CC1 [CBK266629C],97.9
14,O=c1n(-c2ccccc2)c(=O)n(Cc2ccccn2)n1Cc1ccccn1 [CBK266630],98.7
15,N#Cc1ccccc1CSc1nnc(Cc2cccc3ccccc23)n1-c1ccccc1 [CBK266633],89.7
16,COc1ccccc1Nc1nc(N)nc(CN2CCc3ccccc3C2)n1 [CBK266635],95.1
17,Cc1ccc(S(=O)(=O)N2CCC(C(=O)O)CC2)cc1C(=O)O [CBK266636],99.6
18,O=C(CSc1nnc(-c2ccccc2)n1-c1ccc(Cl)cc1)NCc1ccco1 [CBK266637],99.2
19,Cc1cc(=O)oc2ccc(OCC(=O)N(Cc3ccc(F)cc3)Cc3ccco3)cc12 [CBK266639],103
20,COc1ccc(-c2nnc3c4ccccc4c(C)nn23)cc1S(=O)(=O)N1CCCCC1 [CBK266640],110
21,COc1cc(/C=C2/C(=O)N(c3nnn[nH]3)N=C2C)ccc1OC(=O)c1cccs1 [CBK266641],112

row,SMILES,"viability at 28.5 h, 10 µM [%]"
1,COc1ccccc1C1=NN(C(=O)CCCC(=O)O)C(c2ccco2)C1 (stereo not drawn) [CBK266642],91.8
2,Cc1ccc2nc(-c3ccc(N4C(Nc5nc(C)cc(C)n5)=NC(=O)CC4C(=O)O)cc3)sc2c1 (stereo not drawn) [CBK266646],104
3,CCOc1ccccc1NC(=O)C(C)Oc1ccc(OC)cc1 (stereo not drawn) [CBK266648],39.6
4,O=C(O)CCC(=O)N1N=C(c2ccccc2)CC1c1ccc2nccnc2c1 (stereo not drawn) [CBK266650],86.1
5,Cc1ccc(CNC(=O)CSc2nnc(-c3ccncc3)n2-c2ccccc2)cc1 [CBK266654],102
6,O=C(CSc1nnc(CN2CCOCC2)n1-c1ccccc1)N1CCN(c2ccccc2)CC1 [CBK266660],102
7,COc1ccc(OC(C)C(=O)Nc2ccccc2-c2ccccc2)cc1 (stereo not drawn) [CBK266661],94.2
8,Cc1cc(C)c(S(=O)(=O)N(CC(=O)O)C2CCCCC2)c(C)c1 [CBK266663],92.6
9,CCCNc1nc(Nc2ccc(C)cc2)nc(N2CCOCC2)n1 [CBK266664],111
10,O=C(NCCN1CCOCC1)c1cccc(S(=O)(=O)N2CCCCCC2)c1 [CBK266668],97.3
11,COc1ccc(OC(C)C(=O)O/N=C(\N)c2ccccn2)cc1 (stereo not drawn) [CBK266669],100
12,O=C1CC(SCCc2nc3ccccc3[nH]2)C(=O)N1c1cccc(F)c1 (stereo not drawn) [CBK266671],94.6
13,Cc1cc(OCc2nc(-c3ccc(NC(=O)c4ccc5c(c4)OCO5)cc3)no2)ccc1Cl [CBK266673],95.7
14,Nc1nonc1-n1nnc(C(=O)O)c1-c1cccs1 [CBK266674],99.4
15,COc1ccccc1Nc1nc(N)nc(CSCCO)n1 [CBK266679],91.4
16,Cc1ccc(S(N)(=O)=O)cc1-c1nnc2c3ccccc3c(C)nn12 [CBK266680],104
17,COc1ccc(Nc2nc(N)nc(CSc3nnc(N)s3)n2)cc1 [CBK266682],90.6
18,Cc1cccc(C)c1NC(=O)Cn1c(SCC(N)=O)nc2ccccc21 [CBK266684],106
19,Cc1ccc(-c2ccc(/C=C(\C#N)c3nc(-c4ccco4)cs3)o2)c([N+](=O)[O-])c1 [CBK266685],96
20,O=C(O)CSc1nnc(-c2ccncc2)n1-c1ccc(Cl)cc1 [CBK266686],92.1
21,COc1ccc(C(=O)Nn2c(SCC(=O)c3ccc(F)cc3)nc3ccccc3c2=O)cc1 [CBK266688],99.7

row,SMILES,"viability at 28.5 h, 10 µM [%]"
1,Nc1nc(COn2c(-c3ccccc3)nc3ccccc3c2=O)nc(-c2ccccc2O)n1 [CBK266689],98.6
2,O=C(Nc1ccc(-c2noc(COc3ccc(Br)cc3)n2)cc1)c1ccc2c(c1)OCO2 [CBK266692],97.2
3,CC1(C)CC(=O)C2=C(C1)NC(SCC(=O)Nc1ccc(S(=O)(=O)N3CCCCC3)cc1)=C(C#N)C2c1ccco1 (stereo not drawn) [CBK266695],94.3
4,O=C(CSc1nnc(Cc2cccc3ccccc23)n1-c1ccccc1)N1CCc2ccccc21 [CBK266697],99.1
5,CCN1CCN(c2ccc(NC(=O)c3ccc(-c4cc5ccccc5oc4=O)cc3)cc2Cl)CC1 [CBK266700],84.6
6,O=C1CC(SCc2nc3ccccc3[nH]2)C(=O)N1c1ccccc1Cl (stereo not drawn) [CBK266702],94.7
7,COc1cc([N+](=O)[O-])ccc1NC(=O)CS(=O)(=O)Cc1ccccc1 [CBK266704],105
8,Cc1ccc(S(=O)(=O)NCCOc2nc(N(C)C)nc(N3CCOCC3)n2)cc1 [CBK266705],97
9,N#Cc1c(N)n(CCN)c2nc3ccccc3nc12 [CBK266706],87.4
10,CC(=O)Nc1ccc(OC(=O)CSc2nc(C)cc(C)n2)cc1 [CBK266707],86.6
11,COc1ccccc1Nc1nc(N)nc(CSc2nccn2C)n1 [CBK266710],95
12,O=C(CC1C(=O)N(c2ccccc2)C(=S)N1NC(=O)c1ccccn1)Nc1ccc(Cl)cc1 (stereo not drawn) [CBK266711],92.2
13,Nc1nnc(Sc2ccc([N+](=O)[O-])c3nonc23)s1 [CBK266712],82.3
14,CC1(C)CC2(CC(C)(C(=O)CSc3nnc(-c4ccccc4Br)[nH]3)OC2=O)C(=O)O1 (stereo not drawn) [CBK266713],102
15,COc1ccc(Nc2nc(N)nc(CSCCO)n2)cc1 [CBK266714],88.3
16,O=C(C[S+]([O-])c1ccc(C(F)(F)F)cc1[N+](=O)[O-])Oc1cccc2cccnc12 (stereo not drawn) [CBK266716],91.6
17,Cc1ccc(S(=O)(=O)N(C)CC(=O)O/N=C(\N)c2cccnc2)cc1 [CBK266717],110
18,O=C(O)C(Cc1ccccc1)Nc1ncnc2c1oc1ccccc12 (stereo not drawn) [CBK266719],104
19,COc1cccc(/C=C(/C#N)c2ccc(Cl)cc2)c1OCc1cccc(C(=O)O)c1 [CBK266721],97.2
20,NS(=O)(=O)c1ccc(S(=O)(=O)N2CCN(C/C=C/c3ccccc3)CC2)cc1 [CBK266723C],95.8
21,OCCNc1nc(Nc2ccc(Br)cc2)nc2ccccc12 [CBK266724C],87.7

row,SMILES,"viability at 28.5 h, 10 µM [%]"
1,Cc1cc(C)nc(SCc2nc(N)nc(-c3ccccc3O)n2)n1 [CBK266725],94.4
2,Cc1cc(C)n(C(=O)c2cccc(S(=O)(=O)N3CCCCCC3)c2)n1 [CBK266727],102
3,COc1ccc(Nc2nc(N)nc(CSc3nncn3C)n2)cc1 [CBK266730],88.9
4,O=C1CC(SCc2nc3ccccc3[nH]2)C(=O)N1c1cccc(Cl)c1 (stereo not drawn) [CBK266731],94.5
5,O=C(CSc1nnc(CN2CCOCC2)n1-c1ccccc1)N1CCc2ccccc21 [CBK266733],92.7
6,CCN1CCN(C(=O)CN(Cc2ccccc2)S(C)(=O)=O)CC1 [CBK266735],94.6
7,Brc1ccc2nc(NCc3ccccn3)nc(-c3ccccc3)c2c1 [CBK266736],89.3
8,O=C(CCn1cnc2ccccc2c1=O)Nc1ccc(Cl)c(Cl)c1 [CBK266738],89.6
9,Cc1nnc(SCc2cc(=O)[nH]c(Nc3nc(C)c4cccc(C)c4n3)n2)s1 [CBK266740],92.9
10,COC(=O)c1ccccc1NC(=O)Cn1cncc1-c1ccc([N+](=O)[O-])cc1 [CBK266741],91.9
11,N#C/C(=C(/O)c1ccc(-c2ccc([N+](=O)[O-])cc2Cl)o1)c1nc(-c2ccc(F)cc2)cs1 [CBK266742],91
12,O=C(O)c1cccc(-n2nnnc2SCc2ccccn2)c1 [CBK266744],115
13,COc1ccccc1Nc1nc(N)nc(CSc2nc3ccccc3s2)n1 [CBK266747],95.7
14,COc1ccc(NC(=O)CS(=O)(=O)Cc2ccccc2)c([N+](=O)[O-])c1 [CBK266748],93.1
15,Nc1cc(N)nc(SCC(=O)Nc2ccc(Oc3ccccc3)cc2)n1 [CBK266749],95
16,COc1ccc(OC(C)C(=O)Nc2cc3oc4ccccc4c3cc2OC)cc1 (stereo not drawn) [CBK266751],100
17,COc1nc(OCCNS(=O)(=O)c2ccc(C)cc2)nc(N(C)C)n1 [CBK266752],117
18,Cc1cc(C)c2nc(C(F)(F)F)nc(NCCCN3CCOCC3)c2c1 [CBK266753],86.4
19,N#C/C(=C/c1ccc(-c2cc(C(=O)O)cc(C(=O)O)c2)o1)c1nc2ccccc2s1 [CBK266754],103
20,CC(=O)Nc1ccc(NC(=O)CN(C2CCCCC2)S(C)(=O)=O)cc1 [CBK266755],93.3
21,CCn1c2ccccc2c2cc(NC(=O)CN(C)S(=O)(=O)c3ccc(C)cc3)ccc21 [CBK266756],92.8

# Reference: PMC12040169 (PLOS Biology, 2025)
